Reference: US6846934B2, “Photochromic diarylethene substituted with isoxazole group” (Korea Research Institute of Chemical Technology, priority 2001, dated 2005)

Experiments:
[1] = Dispersability of diarylethene compounds in fluorinated diacrylate monomer (TFBDA) or THF; assay type: physicochemical; set-up: key: ◯ = clear solution at RT; Δ = medium solubility; X = insoluble, phase separation and unclear solution; settings: room temperature
Experimental: Solubilities of diarylethene compounds of the present invention and known diarylethene compounds were compared by dispersing in fluorinated diacrylate monomer (TFBDA) or THF.
The same diarylethene compounds used in Examples 6-7 and Comparative Examples 1-4 are used to obtain the desired composition. Each thin film composition was prepared by dissolving 0.01 g (10 wt. %) of diarylethene compound and 0.002 g (2 wt. %) of 1-hydroxycyclohexyl phenyl ketone as photopolymerization initiator in 0.088 g (88 wt. %) of TFBDA and stirring at room temperature for 30 min.

[2] = Dispersability of diarylethene compounds in polymer solution (photochromic thin film composition); assay type: physicochemical; set-up: key: ◯ = clear solution at RT; Δ = medium solubility; X = insoluble, phase separation and unclear solution; settings: 10 wt. % diarylethene, chloroform + trichloroethylene, room temperature
Source text: Solubilities of diarylethene compounds of the present invention and known diarylethene compounds were compared by dispersing in polycarbonate (PC) solution or fluorinated polyethylene.
Compared diarylethene compounds are 1-(6′-(5-phenylisoxazol) 2′-methylbenzo[b]thiophen-3′-yl)-2-(2″-methylbenzo[b]thiophen-3′-yl)hexafluorocyclopentene (PIMBTF6) prepared in Example 4 and 1,2-bis(2-methylbenzo[b]thiophen-3′-yl)hexafluorocyclopentene (BTF6) and 1-(6′-acetyl-2′-methylbenzo[b]thiophen-3′-yl)-2-(2″-methylbenzo[b]thiophen-3′-yl)hexafluorocyclopentene (AMBTF6) which are disclosed. Each thin film composition was prepared by dissolving 0.03 g (10 wt. %) of diarylethene compound and 0.27 g (90 wt. %) of polycarbonate (PC) or fluorinated polyethylene in a mixture of 1.2 g of chloroform and 1.2 g of trichloroethylene and stirring at room temperature for 6 hrs.

[3] = 90 wt. % fluorinated polyethylene (Xeonex 480)

Dispersability ([1]; 10 wt. % diarylethene in TFBDA) | Dispersability ([1]; solvent THF) | Dispersability [2, 3] | Dispersability ([2]; 90 wt. % polycarbonate (PC)) | SMILES
X | ◯ |  |  | Cc1sc2ccccc2c1C1=C(c2c(C)sc3cc(-c4cc(CO)on4)ccc23)C(F)(F)C(F)(F)C1(F)F [IMBTF6, 1-(6′-(5-hydroxymethylisoxazol)-2′-methylbenzo[b]thiophen-3′-yl)-2-(2″-methylbenzo[b]thiophen-3′-yl)hexafluorocyclopentene]
◯ | ◯ | Δ | ◯ | Cc1sc2ccccc2c1C1=C(c2c(C)sc3cc(-c4cc(-c5ccccc5)on4)ccc23)C(F)(F)C(F)(F)C1(F)F [PIMBTF6, 1-(6′-(5-phenylisoxazol)-2′-methylbenzo[b]thiophen-3′-yl)-2-(2″-methylbenzo[b]thiophen-3′-yl)hexafluorocyclopentene]

Second part, the compound before the results:

SMILES | Dispersability ([1]; 10 wt. % diarylethene in TFBDA) | Dispersability ([1]; solvent THF) | Dispersability [2, 3] | Dispersability ([2]; 90 wt. % polycarbonate (PC))
Cc1sc2cc(-c3cc(-c4ccccc4)on3)ccc2c1C1=C(c2c(C)sc3cc(-c4cc(-c5ccccc5)on4)ccc23)C(F)(F)C(F)(F)C1(F)F [DPIMBTF6, di(6′-phenylisoxazol-2′-methylbenzo[b]thiophen-3′-yl)hexafluorocyclopentene] | ◯ |  |  | 
CC(=O)c1ccc2c(C3=C(c4c(C)sc5ccccc45)C(F)(F)C(F)(F)C3(F)F)c(C)sc2c1 [AMBTF6, 1-(6′-acetyl-2′-methylbenzo[b]thiophen-3′-yl)-2-(2″-methylbenzo[b]thiophen-3′-yl)hexafluorocyclopentene] | Δ | ◯ | X | X
Cc1sc2ccccc2c1C1=C(c2c(C)sc3ccccc23)C(F)(F)C(F)(F)C1(F)F [BTF6, 1,2-bis(2-methylbenzo[b]thiophen-3′-yl)hexafluorocyclopentene] | X |  | X | ◯
